Laboratory results: BindingDB's records for patent US20250188095 (Jiangsu Nhwa Pharmaceutical Co., 2025)

Target: T1, Orexin/Hypocretin receptor type 1 (Homo sapiens, UniProt O43613)
T1 sequence (O43613 whole entry): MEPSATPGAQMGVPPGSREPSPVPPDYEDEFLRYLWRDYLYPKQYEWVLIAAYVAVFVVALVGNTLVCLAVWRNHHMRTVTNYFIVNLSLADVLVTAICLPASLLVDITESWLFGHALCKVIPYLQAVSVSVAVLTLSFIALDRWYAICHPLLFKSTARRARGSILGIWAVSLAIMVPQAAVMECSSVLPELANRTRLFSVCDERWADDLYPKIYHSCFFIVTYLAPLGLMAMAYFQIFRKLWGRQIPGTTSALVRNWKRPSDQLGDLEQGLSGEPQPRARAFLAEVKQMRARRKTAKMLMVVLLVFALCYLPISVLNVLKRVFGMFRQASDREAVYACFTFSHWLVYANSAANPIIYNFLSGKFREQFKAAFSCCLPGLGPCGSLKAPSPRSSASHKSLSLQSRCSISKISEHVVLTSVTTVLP
Test: In Vitro Activity Assay
Procedure: The cells were centrifuged at 1000 rpm for 5 min, and the supernatant was discarded. 3 mL of PBS was added, and the mixture was gently pipetted to be mixed well. The cells were centrifuged again at 1000 rpm for 5 min, and the supernatant was discarded.

IC50: > 1 µM
SMILES: Cc1cc(C)nc(N2C[C@H]3CN(C(=O)c4c(-c5ccsc5)cn5ccccc45)C[C@H]3C2)n1 [US20250188095, Example 17]
